{"source": "patent US20260286308A1", "about": "“COMPOSITION CONTAINING EXTRACELLULAR MATRIX AND MATRIX-BOUND VESICLES FOR PRODUCING EXTRACELLULAR MATRIX AND PREPARATION METHOD THEREFOR” (HLB CELL CO., LTD, priority 2023, published 2026)", "key": {"Human fibroblasts [1]": {"test_system": "Human fibroblasts", "test": "Laminin content in cell culture of single-cultured human fibroblasts (anti-human laminin antibody plate kit, absorbance 450 nm)", "details": "50 μM ascorbate-2-phosphate added to medium with insulin, EGF and hydrocortisone (Table 2); FIG. 10", "method": "To measure the amount of human laminin component in the extracellular matrix present in a culture obtained according to each example described below, quantitative analysis was conducted by using a commercially available analysis kit (TakaRa, MK107). The analysis method followed the manufacturer's instructions. Specifically, the culture was added onto a 96-well plate coated with an anti-human laminin antibody, followed by incubation. Thereafter, residues were washed off, and a chromogenic enzyme-conjugated specific antibody was added, followed by incubation. Then, quantitative analysis was conducted by measurement of the absorbance at 450 nm.\nHuman fibroblasts were seeded at a density of 3×10^5 cells per 150-mm^2 culture dish. […]\n(§4) After being cultured according to Example 1.1.1, the cells were further cultured from day 8 using a serum-free/xeno-free culture medium [Dulbecco's Modified Eagle Medium: Ham's F-12 (1:1) supplemented with 100 (DMEM/F12) U/mL penicillin/streptomycin, 2 mM L-alanyl-L-glutamine, 5 μg/L selenium, 50 M ascorbate-2-phosphate, 10 mg/L insulin, 1 μM hydrocortisone, 0.02 nM triiodothyronine, 1 μM isoprenaline, and 10 μg/L epidermal growth factor] while the medium was exchanged at intervals of 2 to 3 days. […] The cell culture after collection was analyzed according to Example 3. […]"}, "Human fibroblasts [2]": {"test_system": "Human fibroblasts", "test": "Total collagen content in cell culture of single-cultured human fibroblasts (Sirius Red kit, absorbance 530 nm)", "details": "50 μM ascorbate-2-phosphate added to medium with insulin, EGF and hydrocortisone (Table 2); FIG. 11", "method": "To measure the human collagen content in the extracellular matrix present in a culture obtained according to each example described below, quantitative analysis was conducted by utilizing a commercially available Sirius Red kit (Chondrex, #9062). The analysis method followed the manufacturer's instructions. Specifically, Sirius Red solution was added to the culture, followed by incubation, and the precipitated collagen was then mixed with an acidic solution and quantitatively analyzed by measurement of absorbance at 530 nm.\nHuman fibroblasts were seeded at a density of 3×10^5 cells per 150-mm^2 culture dish. The cells were cultured in high-glucose Dulbecco's Modified Eagle's Medium (DMEM) supplemented with 10% fetal bovine serum and 1% penicillin for 7 days while a growth medium was exchanged every 2-3 days.\nas §4"}, "Human fibroblasts [3]": {"test_system": "Human fibroblasts", "details": "for extracellular matrix production: 0.02 nM triiodothyronine or 1 μM isoprenaline added to medium with insulin, EGF and hydrocortisone (Table 2), FIGS. 10 and 11", "protocol": "(§1) The analysis method followed the manufacturer's instructions.\nCulture media each lacking an individual factor were prepared, and then culture was performed according to Example 1.1.\nThen, culture was performed according to Example 1.1."}, "[4]": {"test_system": "human fibroblast/keratinocyte culture", "test": "Total collagen produced in culture medium of co-cultured human fibroblasts/keratinocytes after administration of NAC", "format": "cell-based", "details": "for total collagen produced: 13 days, control without NAC 77.1-99.5 μg/mL, FIG. 27", "protocol": "(§2) The human keratinocyte culture obtained by culture for 7 days according to Example 3.1.2 was removed, followed by washing once with PBS. Thereafter, 3 mL of Accutase was added, and then the keratinocytes were suspended by treatment with chemical reaction for 10 minutes in an incubator at 37° C. After 40 mL of PBS was added to the Accutase solution, the mixture was centrifuged at 800 rpm and 25° C. for 5 minutes, and the supernatant was then removed. To the keratinocyte precipitate, FAD medium (DMEM/F12 (1:1)+Glutamax-I, 1% penicillin, 2 mM L-glutamine, 10 mg/L insulin, 5.5 mg/L transferrin, 5 μg/L selenite, 50 μM L-ascorbic acid 2-phosphate, 1 μM hydrocortisone, 0.02 nM triiodothyronine (T3), 10 μg/L epidermal growth factor (EGF), and 1 μM isoproterenol) supplemented with 5% fatal bovine serum was added. The human dermal fibroblasts culture obtained by culture for 7 days in Example 3.1.1 was removed, and then the keratinocytes were dispensed thereon at a density of 1-2×10^6 cells per culture dish and cultured in an incubator at 37° C. for 24 hours.\n(§3) The human fibroblast/keratinocyte culture obtained by culture for 24 hours according to Example 3.1.3 was removed, followed by washing once with PBS. To 35 mL of a serum-free FAD medium (DMEM/F12 (1:1)+Glutamax-I, 1% penicillin, 2 mM L-glutamine, 10 mg/L insulin, 5.5 mg/L transferrin, 5 μg/L selenite, 50 μM L-ascorbic acid 2-phosphate, 1 μM hydrocortisone, 0.02 nM triiodothyronine (T3), 10 μg/L epidermal growth factor (EGF), and 1 μM isoproterenol), N-acetyl cysteine (NAC) was added at a concentration of 0.1 mM, 0.5 mM, 1 mM, or 5 mM, and then the cells were cultured in an incubator at 37° C. for a total of 13 days while the medium was exchanged every 2-3 days. The culture obtained by previous culture was collected.\nas §1"}, "[5]": {"test_system": "human fibroblast/keratinocyte culture", "test": "Type IV collagen produced in culture medium of co-cultured human fibroblasts/keratinocytes after administration of vitamin C", "format": "cell-based", "details": "serum-free FAD medium, 13 days, FIG. 28", "protocol": "as §2\nas §3, with “vitamin C” for “N-acetyl cysteine (NAC)”, “50 μM, 100 μM,” for “0.1 mM, 0.5 mM, 1 mM,”, “200 μM,” for “5 mM,”\nas §1"}, "[6]": {"details": "factor individually removed from serum-free/xeno-free culture medium (Table 1), compared with medium containing all factors, FIGS. 8 and 9"}, "[7]": {"details": "NAC at a concentration of 1 mM or higher (1 mM, 5 mM)"}}, "note": "Where two headings read alike, the source gives them in different places.", "data": [{"compound": "ascorbate-2-phosphate", "values": [{"measurement": "laminin production", "setting": "Human fibroblasts [1]", "result": "did not affect"}, {"measurement": "collagen production", "setting": "Human fibroblasts [2]", "result": "greatly affected"}]}, {"compound": "C[C@]12CCC(=O)C=C1CC[C@@H]1[C@@H]2[C@@H](O)C[C@@]2(C)[C@H]1CC[C@]2(O)C(=O)CO", "note": "[hydrocortisone, reference compound]", "values": [{"measurement": "amount of extracellular matrix produced", "setting": "Human fibroblasts [3]; [6]", "result": "significantly reduced"}]}, {"compound": "CC(C)NCC(O)c1ccc(O)c(O)c1", "note": "(centres unmarked) [isoprenaline, reference compound]", "values": [{"measurement": "extracellular matrix production", "setting": "Human fibroblasts [3]", "result": "affected"}]}, {"compound": "insulin: additive of the serum-free/xeno-free culture medium, 10 mg/L", "values": [{"measurement": "amount of extracellular matrix produced", "setting": "Human fibroblasts [3]; [6]", "result": "significantly reduced"}]}, {"compound": "CC(=O)N[C@@H](CS)C(=O)O", "note": "[NAC, N-acetyl cysteine]", "values": [{"measurement": "total collagen produced", "setting": "[4]; 0.1 mM NAC in serum-free FAD medium", "result": "122.1 to 137.5", "unit": "µg/mL"}, {"measurement": "total collagen produced", "setting": "[4]; 0.5 mM NAC in serum-free FAD medium", "result": "112.7 to 130.9", "unit": "µg/mL"}, {"measurement": "amount of collagen produced", "setting": "[4]; [7]", "result": "reduced"}, {"measurement": "cytotoxicity", "setting": "[4]; [7]", "result": "cytotoxicity was observed"}]}, {"compound": "O=C1O[C@H]([C@@H](O)CO)C(O)=C1O", "note": "[vitamin C]", "values": [{"measurement": "Type IV collagen produced", "setting": "[5]; 50 μM vitamin C (called control group)", "result": 4.17, "unit": "µg/mL"}, {"measurement": "Type IV collagen produced", "setting": "[5]; 100 μM vitamin C", "result": 5.6, "unit": "µg/mL"}, {"measurement": "Type IV collagen produced", "setting": "[5]; 200 μM vitamin C", "result": 5.69, "unit": "µg/mL"}]}, {"compound": "O=C[C@H](O)[C@@H](O)[C@H](O)[C@H](O)CO", "note": "[glucose]", "values": [{"measurement": "amount of extracellular matrix produced", "setting": "Human fibroblasts [3]; glucose concentration 55 mM in DMEM medium (compared with 5.5, 25 and 40 mM), FIGS. 14 and 15", "result": "reduced"}]}, {"compound": "N[C@@H](Cc1cc(I)c(Oc2ccc(O)c(I)c2)c(I)c1)C(=O)O", "note": "[triiodothyronine, reference compound]", "values": [{"measurement": "extracellular matrix production", "setting": "Human fibroblasts [3]", "result": "affected"}]}]}
